Assay results published in patent US7425635B2, “Prodrugs and conjugates of thiol- and selenol-containing compounds and methods of use thereof” (University of Utah Research Foundation, priority 1997, dated 2008).
Marks after values point to notes of the source that are not given here.

How the values were obtained:
[1] = test system: E. coli AB1157; assay: Toxicity in E. coli AB1157 (colony forming ability); type: cell-based; conditions: E. coli AB1157, cell viability by colony forming ability
Procedure: (§1) A well characterized bacterial system was used as an initial screen for radioprotective activity of the novel compounds. A single colony of the bacteria, growing on a plate of LB medium (10 g tryptone, 5 g yeast extract, plus 5 g NaCl in 1 L water), was inoculated into 2 mL LB and incubated overnight. 20 mL LB medium were then inoculated with 600 μL of the overnight culture, and incubated with shaking at 37° C., 250 rpm. The cells were collected and washed with phosphate buffered saline. At this point the bacteria could be irradiated, treated with drug, etc., as outlined below. After dilution of the treated cells to 100 cells per 100 μL, they are plated out and incubated overnight. Cell viability is then measured by colony forming ability.
The toxicity of the compounds of interest in this system was explored.

[2] = test system: E. coli AB1157; assay: Radioprotection in E. coli AB1157; type: cell-based; conditions: E. coli AB1157, agent 1 hour before irradiation at 0.6 kGy
Procedure: Radioprotection in E. coli AB1157
as §1
Growth curves were generated for the bacteria in the absence of any treatment to provide experience with basic handling as well as important baseline information. The radiation dose response of the system was investigated irradiating bacterial cultures in a Shepherd Mark I ^137Cs irradiator over a dose range of 0 to 1 kGy. The dose-response curves are linear and reproducible from day to day.
Radioprotection experiments were also conducted in the bacterial system. […] Surviving fraction compared to that seen in control (untreated) cells, which were not irradiated, was then calculated.

[3] = test system: Ugt1a1; assay: Northern blot of liver Ugt1a1 mRNA after ip dosing; type: in vivo, mice; conditions: 1.25 mg Se/kg, mean ± SEM
Procedure: (§2) Linking efficacy to biochemical parameters and a mechanism was limited in the initial study by only two parameters, [Se] and GPx activity. The in-vivo effects of selenazolidine compounds were then evaluated using, in addition to GPx, glutathione S-transferases (GSTs), quinone oxidoreductases (NQORs), UDP-glucuronosyltransferases (UGTs), and microsomal epoxide hydrolase (mEH). To investigate transcriptional changes of these classes of enzymes, it was necessary to develop a battery of cDNA probes for use in Northern blot analysis of RNA extracted from treated animals (Table 2).
(§3) Whether the selenaproline compounds had the ability to up-regulate the transcription of Phase II and/or other “protective” enzymes was first evaluated following a single dose of each (Table 3). […] The experiment was repeated but with a 7-day treatment regimen (Table 4), the time period for which the compounds were given in the diet before NNK administration in the tumor experiment reported in Table 1. […] With multiple doses, SCA induced Ugt1a9, an mRNA that was not changed with a single dose. […] The elevation in the Gst-mu transcript was unique to multiple OSCA treatment. The elevation of the GST-alpha mRNA was also seen with SCA treatment. Microsomal epoxide hydrolase mRNA was robustly elevated by multiple doses of all three selenaproline compounds, an effect not anticipated from the single dose experiment where not even minor changes were apparent.

[4] = test system: Ugt1a6; assay: Northern blot of liver Ugt1a6 mRNA after ip dosing; type: in vivo, mice; conditions: 1.25 mg Se/kg, mean ± SEM
Procedure: as §2, §3

[5] = test system: Ugt1a9; assay: Northern blot of liver Ugt1a9 mRNA after ip dosing; type: in vivo, mice; conditions: mean ± SEM
Procedure: as §2, §3

[6] = test system: Gst-alpha; assay: Northern blot of liver Gst-alpha mRNA after ip dosing; type: in vivo, mice; conditions: mean ± SEM
Procedure: as §2, §3

[7] = test system: Gst-mu; assay: Northern blot of liver Gst-mu mRNA after ip dosing; type: in vivo, mice; conditions: mean ± SEM
Procedure: as §2, §3

[8] = test system: mEH; assay: Northern blot of liver mEH mRNA after ip dosing; type: in vivo, mice; conditions: mean ± SEM
Procedure: as §2, §3

[9] = test system: GPx; assay: Northern blot of liver GPx mRNA after ip dosing; type: in vivo, mice; conditions: mean ± SEM
Procedure: as §2, §3

[10] = sALT (hepatotoxicity) after 7 daily ip doses; type: in vivo; design: unit not given here; conditions: 7 daily doses ip, 1.25 mg Se/kg, with corn oil; untreated mice 37.5 ± 2.9
Source text: (§4) Many of the mRNA changes seen with a single dose were not sustained with multiple dosing. Changes in Ugt transcripts after multiple dosing were noticeably absent. Unique to BSCA among the four new compounds investigated was its ability to induce Gst-alpha, Gst-mu and GPx mRNAs. For the Gst-alpha transcripts, which appeared elevated by corn oil, the BSCA increase was much greater than the vehicle alone (8-fold versus 2-fold) and was statistically significant (p<0.05). BSCA shared with PhOHSCA the ability to elevate mEH mRNA.

[11] = test system: 'protective' enzyme mRNAs; assay: Northern blot of 'protective' enzyme mRNAs (all probes) after ip dosing; type: in vivo, mice; conditions: 7 daily doses ip, with corn oil
Procedure: as §2, §4

[12] = test system: NNK lung tumor; assay: NNK lung tumor four-month feeding study; type: in vivo; conditions: mice, diet 15 ppm Se from 1 week prior to NNK (10 umol, ip), sacrificed after 16 weeks
Procedure: (§5) Three novel selenazolidines, 2-methyl-, 2-oxo- and 2-unsubstituted (i.e., selenaproline) selenazolidine-4[R]-carboxylic acid (MSCA, OSCA, and SCA respectively) that had been synthesized as prodrugs of selenocysteine were evaluated for their potential to act as cancer chemopreventive agents. [Se] and GPx activity were evaluated.
(§6) Where indicated, mice (16 g) were given diets fortified with SCA, MSCA or OSCA (15 ppm Se) for 1 week prior to NNK (10 umol, ip). Two other groups received the unmodified AIN-76A diet, with and without NNK administration. All groups were maintained on their pretreatment diet until the animals were sacrificed after 16 weeks. Liver GPx activity is expressed as μmol NADPH oxidized [in regenerating GSH]/min/mg 10,000 g×20 min supernatant protein; RBC activity as μmol/min/mg RBC lysate hemoglobin.

[13] = Body weight gain and liver weight in four-month feeding study; type: in vivo; conditions: mice, diet 15 ppm Se, NNK
Procedure: as §6

[14] = test system: GPx; assay: Hepatic and RBC (tButylOOH) GPx activity in four-month feeding study; type: in vivo; conditions: mice, diet 15 ppm Se, NNK; for Hepatic (tButylOOH) GPx: liver
Procedure: as §5, §6

[15] = test system: GST; assay: Hepatic cytosolic GST (CDNB) activity after 7 daily ip doses; type: in vivo, mice; conditions: 7 daily doses ip, hepatic cytosol; naive 5248 ± 503
[16] = test system: GPx; assay: Hepatic cytosolic GPx (H202) activity after 7 daily ip doses; type: in vivo, mice; conditions: 7 daily doses ip, hepatic cytosol; naive 894 ± 36
[17] = 7 daily doses ip, with corn oil, liver RNA 24 hours after the last dose
[18] = 1 dose ip, 1.25 mg Se/kg in corn oil, liver RNA 24 hours after dosing
[19] = 7 daily doses ip, 1.25 mg Se/kg, with corn oil, liver RNA 24 hours after the last dose
[20] = 1 dose ip, liver RNA 24 hours after dosing
[21] = 7 daily doses ip, liver RNA 24 hours after the last dose
[22] = 1 dose ip, 1.25 mg Se/kg, liver RNA 24 hours after dosing
[23] = 7 daily doses ip, 1.25 mg Se/kg, liver RNA 24 hours after the last dose

Row | Structure (SMILES) | Radioprotection (surviving fraction) [2] | Body wt gain (%) [13] | Liver weight [13] [g] | RBC (tButylOOH) GPx [14] | Hepatic (tButylOOH) GPx [14] | Gst-alpha mRNA [6, 22] [fold change from naive] | Gst-mu mRNA [7, 22] [fold change from naive] | mEH mRNA [8, 22] [fold change from naive] | mEH mRNA [8, 23] [fold change from naive] | GPx (1.5 kb) mRNA [9, 22] [fold change from naive] | GPx mRNA [9, 23] [fold change from naive] | GST (CDNB) activity [15] | GPx (H202) activity [16] | other results
1 | NCCCNCCS [WR-1065, reference compound] | greatest amount of protection |  |  |  |  |  |  |  |  |  |  |  |  | Toxicity in the bacterial system [1]: neither WR-1065 nor its 2-oxo prodrug produced any toxicity
2 | O=C(O)C1C[Se]C(C2CCCCC2)N1 (mixture of isomers) [ChSCA, 2-cyclohexyl-SCA] |  |  |  |  |  |  |  |  |  |  |  |  |  | Ugt1a1 mRNA [3, 17]: 1.20 ± 0.17 fold change from naive; Ugt1a6 mRNA [4, 17]: 1.22 ± 0.17 fold change from naive; Ugt1a9 mRNA [5, 18]: 3.04 ± 0.55 fold change from naive; Ugt1a9 mRNA ([5]; 1 dose ip, 1.25 mg Se/kg in corn oil, liver RNA 24 hours after dosing, listed as CnSCA): statistically elevated; Ugt1a9 mRNA [5, 19]: 1.16 ± 0.13 fold change from naive; Gst-alpha mRNA [6, 18]: 1.73 ± 0.20 fold change from naive; Gst-alpha mRNA [6, 19]: 1.99 ± 0.77 fold change from naive; Gst-mu mRNA [7, 18]: 1.20 ± 0.15 fold change from naive; Gst-mu mRNA [7, 19]: 1.32 ± 0.21 fold change from naive; mEH mRNA [8, 18]: 1.34 ± 0.41 fold change from naive; mEH mRNA [8, 19]: 1.31 ± 0.19 fold change from naive; GPx mRNA [9, 18]: 1.20 ± 0.15 fold change from naive; GPx mRNA [9, 19]: 2.26 ± 0.66 fold change from naive; sALT [10]: 40.0 ± 1.7; Induction of 'protective' enzyme mRNAs (any) [11]: failed to induce any mRNAs
3 | CC1N[C@H](C(=O)O)C[Se]1 (mixture of isomers) [MSCA, 2(R,S)-Methylselenazolidine-4(R)-carboxylic acid] |  | 49.3% | 1.17 ± 0.02 | 220 ± 32 μmol/min/mg RBC lysate hemoglobin | 564 ± 46 μmol NADPH oxidized/min/mg 10, | 1.00 ± 0.19 | 1.07 ± 0.57 | 1.06 ± 0.12 | 3.35 ± 1.21 | 1.65 ± 0.27 | 1.43 ± 0.35 | 6948 ± 502 nmol/mg cytosol (100,000 g supernatant) protein/min | 944 ± 32 nmol/mg cytosol (100,000 g supernatant) protein/min | NNK Tumors [12]: 8.3 ± 0.9; Ugt1a1 mRNA [3, 20]: 1.07 ± 0.11 fold change from naive; Ugt1a1 mRNA [3, 21]: 1.15 ± 0.09 fold change from naive; Ugt1a6 mRNA [4, 20]: 1.21 ± 0.28 fold change from naive; Ugt1a6 mRNA [4, 21]: 1.02 ± 0.15 fold change from naive; Ugt1a9 mRNA [5, 22]: 1.47 ± 0.18 fold change from naive; Ugt1a9 mRNA [5, 23]: 1.22 ± 0.29 fold change from naive; Gst-alpha mRNA [6, 23]: 1.18 ± 0.33 fold change from naive; Gst-mu mRNA [7, 23]: 1.65 ± 0.18 fold change from naive
4 | NC1CCSC1=O (stereo not drawn) [HCTL, homocysteine thiolactone] | greatest amount of protection |  |  |  |  |  |  |  |  |  |  |  |  | 
5 | O=C1N[C@H](C(=O)O)C[Se]1 [OSCA, 2-Oxoselenazolidine-4(R)-carboxylic acid] |  | 39.9* % | 1.02 ± 0.02 | 281 ± 24 μmol/min/mg RBC lysate hemoglobin | 518 ± 59 μmol NADPH oxidized/min/mg 10, | 1.61 ± 0.53 | 1.38 ± 0.33 | 0.88 ± 0.19 | 2.91 ± 1.48 | 0.80 ± 0.22 | 1.13 ± 0.39 | 6887 ± 1142 nmol/mg cytosol (100,000 g supernatant) protein/min | 880 ± 72 nmol/mg cytosol (100,000 g supernatant) protein/min | 
